Data on three compounds can be found in ChEMBL document CHEMBL3044670, “Aromatic sulfonyl hydrazides and sulfonyl hydrazones: antimicrobial activity and physical properties” (2013).

By MIC is commonly meant the lowest concentration that inhibits growth of the organism.

In brackets after ≈: the same amount, converted by molar mass.

Common to all, as to assay type: functional
For experiment [1], the system named is Enterococcus faecalis. Briefly: Antibacterial activity against Enterococcus faecalis ATCC 29212 at 30 ug/disk after 18 to 24 hr by disk diffusion method. The settings on record: for zone of inhibition at 30 µg/disc: read-out: DIZ. (In general: In agar diffusion tests the substance spreads into inoculated agar from a disc or well.)
Experiment [2] relates to Klebsiella aerogenes. Briefly: Antibacterial activity against Enterobacter aerogenes ATCC 13048 at 30 ug/disk after 18 to 24 hr by disk diffusion method. Conditions: for zone of inhibition at 30 µg/disc: read-out: DIZ.
The subject of experiment [3] is Staphylococcus epidermidis. Briefly: Antibacterial activity against Staphylococcus epidermidis ATCC 12228 at 30 ug/disk after 18 to 24 hr by disk diffusion method. Conditions: for zone of inhibition at 30 µg/disc: read-out: DIZ.
Experiment [4] deals with Escherichia coli. Briefly: Antibacterial activity against Escherichia coli ATCC 25922 at 30 ug/disk after 18 to 24 hr by disk diffusion method. The settings on record: for zone of inhibition at 30 µg/disc: read-out: DIZ.
For experiment [5], the system named is Candida albicans. Description: Antifungal activity against Candida albicans ATCC 90028 at 30 ug/disk after 18 to 24 hr by disk diffusion method. The settings on record: for zone of inhibition at 30 µg/disc: read-out: DIZ.
Experiment [6] relates to Staphylococcus aureus. Briefly: Antibacterial activity against Staphylococcus aureus ATCC 25923 at 30 ug/disk after 18 to 24 hr by disk diffusion method. Conditions: for zone of inhibition at 30 µg/disc: read-out: DIZ.
Experiment [7] concerns Pseudomonas aeruginosa. Briefly: Antibacterial activity against Pseudomonas aeruginosa ATCC 27853 at 30 ug/disk after 18 to 24 hr by disk diffusion method. The settings on record: for zone of inhibition at 30 µg/disc: read-out: DIZ.
Experiment [8] has as its system Pseudomonas fluorescens. Description: Antibacterial activity against Pseudomonas fluorescens ATCC 49838 at 30 ug/disk after 18 to 24 hr by disk diffusion method. The settings on record: for zone of inhibition at 30 µg/disc: read-out: DIZ.
The subject of experiment [9] is Klebsiella pneumoniae. Briefly: Antibacterial activity against Klebsiella pneumoniae ATCC 13883 at 30 ug/disk after 18 to 24 hr by disk diffusion method. Conditions: for zone of inhibition at 30 µg/disc: read-out: DIZ.
Experiment [10] relates to Candida albicans. Briefly: Antifungal activity against Candida albicans ATCC 90028 after 18 to 24 hr by broth microdilution method. (In general: In broth dilution the organism is exposed to a series of concentrations in liquid medium.)
For experiment [11], the system named is Bacillus cereus. Description: Antibacterial activity against Bacillus cereus ATCC 11778 at 30 ug/disk after 18 to 24 hr by disk diffusion method. The settings on record: for zone of inhibition at 30 µg/disc: read-out: DIZ.
Experiment [12] relates to Bacillus subtilis. Briefly: Antibacterial activity against Bacillus subtilis ATCC 6633 at 30 ug/disk after 18 to 24 hr by disk diffusion method. Conditions: for zone of inhibition at 30 µg/disc: read-out: DIZ.
Experiment [13] relates to Enterococcus faecalis. Description: Antibacterial activity against Enterococcus faecalis ATCC 29212 after 18 to 24 hr by broth microdilution method.
Experiment [14] relates to Pseudomonas fluorescens. Briefly: Antibacterial activity against Pseudomonas fluorescens ATCC 49838 after 18 to 24 hr by broth microdilution method.
For experiment [15], the system named is Staphylococcus epidermidis. Briefly: Antibacterial activity against Staphylococcus epidermidis ATCC 12228 after 18 to 24 hr by broth microdilution method.
Experiment [16] concerns Pseudomonas aeruginosa. Description: Antibacterial activity against Pseudomonas aeruginosa ATCC 27853 after 18 to 24 hr by broth microdilution method.
Experiment [17] has as its system Klebsiella aerogenes. Briefly: Antibacterial activity against Enterobacter aerogenes ATCC 13048 after 18 to 24 hr by broth microdilution method.
In experiment [18] the test system is Escherichia coli. Briefly: Antibacterial activity against Escherichia coli ATCC 25922 after 18 to 24 hr by broth microdilution method.
Experiment [19] relates to Klebsiella pneumoniae. Briefly: Antibacterial activity against Klebsiella pneumoniae ATCC 13883 after 18 to 24 hr by broth microdilution method.
For experiment [20], the system named is Bacillus subtilis. Description: Antibacterial activity against Bacillus subtilis ATCC 6633 after 18 to 24 hr by broth microdilution method.
Experiment [21] has as its system Staphylococcus aureus. Briefly: Antibacterial activity against Staphylococcus aureus ATCC 25923 after 18 to 24 hr by broth microdilution method.

Take NYSTATIN: the inhibition zone (IZ) is 0 mm in experiment [1]; 0 mm in experiment [2]; 0 mm in [3]; 0 mm in experiment [4]; 18 mm in experiment [5]; 0 mm in experiment [6]. Moreover, the inhibition zone (IZ) in experiment [7], in [8], in experiment [9], in [11] and in experiment [12] was 0 mm each time. Besides, the lowest concentration to inhibit growth in experiment [10] (MIC) was 0.125 µg/mL.

On to `CN(C)[C@@H]1C(O)=C(C(N)=O)C(=O)[C@@]2(O)C(O)=C3C(=O)c4c(O)cccc4[C@@](C)(O)[C@H]3C[C@@H]12` [TETRACYCLINE], for which the zone of inhibition at 30 µg/disc in experiment [1] is 0 mm; in [2] it was 0 mm; in [3] it was 19 mm; in experiment [4], 23 mm; in experiment [5], 0 mm; in [6], 0 mm. In addition, the zone of inhibition at 30 µg/disc in [7] was determined as 23 mm; in experiment [8], 19 mm; in experiment [9], 12 mm; in experiment [11], 19 mm; in experiment [12], 26 mm. In addition, the MIC worked out at 0.625 µg/mL (≈ 1.41 µM) in experiment [13]; 0.125 µg/mL (≈ 0.281 µM) in experiment [14]; 0.125 µg/mL (≈ 0.281 µM) in experiment [15]; 0.125 µg/mL (≈ 0.281 µM) in experiment [16]; 0.15 µg/mL (≈ 0.338 µM) in experiment [17]; 0.075 µg/mL (≈ 0.169 µM) in experiment [18]. For the same compound, the MIC in [19] stood at 0.15 µg/mL (≈ 0.338 µM); in experiment [20], 0.075 µg/mL (≈ 0.169 µM).

Take `COc1cc(Cc2cnc(N)nc2N)cc(OC)c1OC` [TRIMETHOPRIM]: the zone of inhibition at 30 µg/disc in experiment [1] came to 27 mm; in experiment [2] it was 28 mm; in experiment [3] it was 29 mm; in [4] it was 0 mm; in [5] it was 0 mm; in [6], 37 mm. Besides, the zone of inhibition at 30 µg/disc in experiment [7] is 31 mm; in experiment [8], 0 mm; in [9], 0 mm; in experiment [11], 0 mm; in [12], 20 mm. In addition, the MIC was found to be 1 µg/mL (≈ 3.44 µM) in experiment [21]; 0.5 µg/mL (≈ 1.72 µM) in experiment [13]; 1 µg/mL (≈ 3.44 µM) in experiment [14]; 1 µg/mL (≈ 3.44 µM) in experiment [16]; 1 µg/mL (≈ 3.44 µM) in experiment [17]; 1 µg/mL (≈ 3.44 µM) in experiment [19]. In addition, it took 1 µg/mL (≈ 3.44 µM) to inhibit growth in [20] (MIC).
